Source: US7803779B2, “Drugs for the treatment and/or prophylaxis of gastroparesis symptom” (Chugai Seiyaku Kabushiki Kaisha, priority 2005, dated 2010)
“Also recorded” adds a separate entry of the source.

What was measured:
[1] = system: patients with gastroparesis; conditions: 383 patients, both delayed and non-delayed gastric emptying; cited from earlier work
[2] = system: gastric emptying; conditions: clinical; cited from earlier work
[3] = system: diabetic patients with a longer-than-ten-year history of diabetes with a normal level of gastric emptying; test: Effect of GM-611 on gastroparesis symptom in diabetic patients of diabetic history longer than 10 years with a normal level of gastric emptying (Example 4, FIG. 4); format: in vivo, human
From the text: FIG. 4, which is titled “Effect of GM-611 on gastroparesis symptom in diabetic patients of diabetic history longer than 10 years with a normal level of gastric emptying”, is a graph showing results of evaluating the percentage of responders who were in the diabetic patients of diabetic history longer than 10 years with the gastroparesis symptom regardless a normal level of gastric emptying and who perceived an adequate relief of gastroparesis symptom by the administration of the therapeutic and/or preventive agent against gastroparesis symptom according to the present invention; M1R (month 1 responder) refers to patients who had adequate relief in at least 50% of weekly evaluations for the first one month of medication and CR (complete responder) refers to patients who were evaluated as monthly responder for three consecutive months.
(§1) In the following examples, GM-611 (8,9-didehydro-N-demethyl-9-deoxo-6,11-dideoxy-6,9-epoxy-12-O-methyl-N-(1-methylethyl)-11-oxoerythromycin,(2E)-2-butenedioate) was used as a compound of the formula (1). This compound was synthesized in the laboratories of Chugai Pharmaceutical Co., Ltd. as described in WO02/18403 and WO02/30943. To evaluate the efficacy of GM-611 in improving subjective gastroparesis symptom, diabetic patients on insulin therapy were selected. […]
(§2) In order to assess the efficacy of GM-611 in improving subjective gastroparesis symptom, diabetic patients who were presenting with gastroparesis symptom despite a normal level of gastric emptying were selected. […] All assessment in the subjective gastroparesis symptom was evaluated by an electric diary by phone. Starting one week after the initiation of medication, the patients were interviewed every week and asked whether in the past 7 days, you have had adequate relief of your gastroparesis symptoms, and the yes/no answers were recorded. […] Patients who were evaluated as monthly responder for three consecutive months. were assigned as “complete responders” (CR). […]

[4] = system: diabetic patients presenting with gastroparesis symptom despite a normal level of gastric emptying; test: Effect of GM-611 on gastroparesis symptom in diabetic patients with a normal level of gastric emptying (Example 1, FIG. 1); format: in vivo, human
From the text: FIG. 1, which is titled “Effect of GM-611 on gastroparesis symptom in diabetic patients with a normal level of gastric emptying”, is a graph showing results of evaluating the percentage of responders who were in the patients the gastroparesis symptom regardless a normal level of gastric emptying and who perceived an adequate relief of gastroparesis symptom by the administration of the therapeutic and/or preventive agent against gastroparesis symptom according to the present invention; M1R (month 1 responder) refers to patients who had adequate relief in at least 50% of weekly evaluations for the first one month of medication and CR (complete responder) refers to patients who were evaluated as monthly responder for three consecutive months.
(§3) In the following examples, GM-611 (8,9-didehydro-N-demethyl-9-deoxo-6,11-dideoxy-6,9-epoxy-12-O-methyl-N-(1-methylethyl)-11-oxoerythromycin,(2E)-2-butenedioate) was used as a compound of the formula (1). This compound was synthesized in the laboratories of Chugai Pharmaceutical Co., Ltd. as described in WO02/18403 and WO02/30943. To evaluate the efficacy of GM-611 in improving subjective gastroparesis symptom, diabetic patients on insulin therapy were selected. Since the analyses in the following examples were after the key-open of clinical trial, P<0.01 in a two-tail test was considered to show a significant effect and P<0.1 a tendency.
In order to assess the efficacy of GM-611 in improving subjective gastroparesis symptom, diabetic patients who were presenting with gastroparesis symptom despite a normal level of gastric emptying were selected. […] All assessment in the subjective gastroparesis symptom was evaluated by an electric diary by phone. Starting one week after the initiation of medication, the patients were interviewed every week and asked whether in the past 7 days, you have had adequate relief of your gastroparesis symptoms, and the yes/no answers were recorded. […] Patients who were evaluated as monthly responder for three consecutive months. were assigned as “complete responders” (CR).

[5] = system: diabetic patients with good glycemic control (hemoglobin A1C no more than 8%) with a normal level of gastric emptying; test: Effect of GM-611 on gastroparesis symptom in diabetic patients of good glycemic control with a normal level of gastric emptying (Example 3, FIG. 3); format: in vivo, human
From the text: FIG. 3, which is titled “Effect of GM-611 on gastroparesis symptom in diabetic patients of good glycemic control with a normal level of gastric emptying”, is a graph showing results of evaluating the percentage of responders who were in the diabetic patients with good glycemic control with the gastroparesis symptom regardless a normal level of gastric emptying and who perceived an adequate relief of gastroparesis symptom by the administration of the therapeutic and/or preventive agent against gastroparesis symptom according to the present invention; M1R (month 1 responder) refers to patients who had adequate relief in at least 50% of weekly evaluations for the first one month of medication and CR (complete responder) refers to patients who were evaluated as monthly responder for three consecutive months.
as §1, §2

[6] = system: patients of type 1 diabetes with gastroparesis symptom and a normal level of gastric emptying; test: Effect of GM-611 on gastroparesis symptom in patients of type 1 diabetes with a normal level of gastric emptying (Example 2, FIG. 2); format: in vivo, human; conditions: type 1 diabetes patients only
From the text: FIG. 2, which is titled “Effect of GM-611 on gastroparesis symptom in patients of type 1 diabetes with a normal level of gastric emptying”, is a graph showing results of evaluating the percentage of responders who were in the patients of type 1 diabetes with the gastroparesis symptom regardless a normal level of gastric emptying and who perceived an adequate relief of gastroparesis symptom by the administration of the therapeutic and/or preventive agent against gastroparesis symptom according to the present invention; M1R (month 1 responder) refers to patients who had adequate relief in at least 50% of weekly evaluations for the first one month of medication and CR (complete responder) refers to patients who were evaluated as monthly responder for three consecutive months.
as §3, §2

SMILES	efficacy on gastroparesis symptom [1]	acceleration of gastric emptying [2]	P, CR rate in whole GM-611 treated group vs. placebo group by chi-square test [3]	dose dependency of efficacy [3]	efficacy in improving the symptom [3]	dose dependency of efficacy [4]	P, CR rate in whole GM-611 treated group vs. placebo group by chi-square test ([4]; complete responders, 3 months)	percentage of responders who had adequate relief in gastroparesis symptom vs placebo group ([4]; twice daily at meals for 3 months, both GM-611 groups)	P, CR rate in whole GM-611 treated group vs. placebo group by chi-square test [5]	dose dependency of efficacy [5]	efficacy in improving the symptom [5]	P, CR rate in whole GM-611 treated group vs. placebo group by chi-square test [6]	dose dependency of efficacy [6]	efficacy in improving the symptom ([6]; normal gastric emptying)
CC[C@H]1OC(=O)[C@H](C)[C@@H](O[C@H]2C[C@@](C)(OC)C[C@H](C)O2)[C@H](C)[C@@H](O[C@@H]2O[C@H](C)C[C@H](N(C)CC)[C@H]2O)[C@@]2(C)CC(C)=C(O2)[C@H](C)[C@@H](O)[C@H]1C [ABT-229]	no efficacy	capable of accelerating gastric emptying												
CC[C@H]1OC(=O)[C@H](C)[C@@H](O[C@H]2C[C@@](C)(OC)[C@@H](O)[C@H](C)O2)[C@H](C)[C@@H](O[C@@H]2O[C@H](C)C[C@H](N(C)C(C)C)[C@H]2O)[C@@]2(C)CC(C)=C(O2)[C@H](C)C(=O)[C@]1(C)OC.O=C(O)/C=C/C(=O)O [GM-611, 8,9-didehydro-N-demethyl-9-deoxo-6,11-dideoxy-6,9-epoxy-12-O-methyl-N-(1-methylethyl)-11-oxoerythromycin,(2E)-2-butenedioate]			0.001	dose-dependent manner	significant efficacy in improving the symptom	no apparent dose dependency	0.025	greater than those in the placebo group; also recorded: only a tendency to improve the symptom	0.010	dose-dependent manner	significant efficacy in improving the symptom	0.001	dose-dependent	significant
